Assay results reported in US8623893B2, “Pyridino-pyridinone derivatives, preparation and therapeutic use thereof” (SANOFI, priority 2009, dated 2014).
pIC50: −log10 of the molar value. Counter-ions that a name gives are not always drawn.

Assays:
[1] = target: T1, fusion protein Tel/PDGF-R beta (PDGF beta receptor) in BaF/3 cells (Homo sapiens, UniProt P09619); assay: Inhibition of proliferation of BaF3 Tel/PDGF cells (tyrosine kinase activity of PDGF-R beta), CellTiter-Glo, 72 h; format: cell-based, murine; details: 72 h incubation, cellular ATP, read-out: IC50 (concentration that inhibits 50% of the proliferation of Baf3 tel/PDGF cells)
T1 construct: the transmembrane and intracellular part of the PDGF-R beta receptor; expressed in transfected cells; host or cells: murine haematopoietic cell line BaF/3; the other entry of the earlier key: ETV6 (P41212, Transcription factor ETV6)
T1 sequence (P09619 with tags, fused parts or gaps): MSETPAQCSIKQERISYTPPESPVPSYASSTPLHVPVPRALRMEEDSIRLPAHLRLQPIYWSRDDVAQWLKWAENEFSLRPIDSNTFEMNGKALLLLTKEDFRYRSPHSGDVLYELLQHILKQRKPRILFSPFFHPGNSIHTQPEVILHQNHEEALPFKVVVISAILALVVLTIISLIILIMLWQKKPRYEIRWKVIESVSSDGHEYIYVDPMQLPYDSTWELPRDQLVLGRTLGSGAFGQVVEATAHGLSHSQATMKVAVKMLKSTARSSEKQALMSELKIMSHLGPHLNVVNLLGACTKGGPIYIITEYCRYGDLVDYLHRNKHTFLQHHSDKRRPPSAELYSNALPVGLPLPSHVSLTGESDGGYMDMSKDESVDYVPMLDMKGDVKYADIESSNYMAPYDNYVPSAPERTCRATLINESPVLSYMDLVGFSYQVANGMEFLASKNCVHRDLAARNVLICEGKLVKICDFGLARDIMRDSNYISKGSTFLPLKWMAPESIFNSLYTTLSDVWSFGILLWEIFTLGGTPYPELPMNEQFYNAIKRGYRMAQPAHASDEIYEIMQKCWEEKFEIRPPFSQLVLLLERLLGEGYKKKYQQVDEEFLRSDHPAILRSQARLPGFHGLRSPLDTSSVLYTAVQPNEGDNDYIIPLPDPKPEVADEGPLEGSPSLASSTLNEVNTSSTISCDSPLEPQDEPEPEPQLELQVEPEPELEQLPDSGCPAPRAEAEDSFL
Source text: (§1) The inhibitory activity with respect to PDGF or Flt-3 receptors is given by the concentration that inhibits 50% of the proliferation activity of cells Baf3 tel/PDGF or MV4-11, respectively.
Measurement of Inhibition of the Tyrosine Kinase Activity of the Receptor to PDGF Beta (PDGF-Rβ) (Baf-3 tel/PDGFRβ):
This test consists of evaluating the effects of the compounds on the tyrosine kinase activity of the PDGF beta receptor.
The inhibitory effect of the compounds according to the invention on the tyrosine kinase activity of the PDGF-R receptor was evaluated on the murine haematopoietic cell line BaF/3 transfected with a plasmid coding for the fusion protein Tel/PDGF-R beta. This fusion protein is found in chronic myeloid myelomonocytic leukaemias (CMML). It comprises the N-terminal part of the transcription factor Tel and the transmembrane and intracellular part of the PDGF-R beta receptor. This fusion protein is present in dimerized form (presence of an oligomerization domain in the N-terminal part of Tel) and accordingly leads to the constitutive activity of the kinase domain of PDGF-R beta.
(§2) The BaF3 Tel/PDGF cells are washed with phosphate buffer and seeded in 96-well plates, at a density of 5.10^4 cells/ml (100 ml per well), in RPMI 1640 containing 10% of FCS, in the presence or absence of the test compounds. After incubation for 72 h, the viable cells are quantified by measurement of cellular ATP using the CellTiter-Glo® kit (Promega, Cat G7571). The cells are treated according to the instructions given by the supplier of the kit and the luminescence is measured with a Luminoskan (Ascent, Labsystem) with the following parameters: measurement: single; integration time: 1000 ms, lag time: 5 s.
It thus appears that the compounds according to the invention have an inhibitory activity on the tyrosine kinase activity of PDGF-R beta. This activity is given by the concentration that inhibits 50% of the proliferation of Baf3 tel/PDGF cells (IC50).

[2] = target: T2, Flt-3 receptor (constitutively active mutant Flt3ITD, MV4-11 cell line) (Homo sapiens, UniProt P36888, INS600HVDFREYEYD); assay: Inhibition of proliferation of MV4-11 cells (tyrosine kinase activity of Flt-3 receptor), CellTiter-Glo, 72 h; format: cell-based; details: 72 h incubation, cellular ATP, read-out: IC50 (concentration that inhibits 50% of the proliferation of the MV4-11 cells)
T2 construct: bearing a constitutively active mutant Flt3ITD; endogenous in cells; host or cells: MV4-11
T2 sequence (P36888 with tags, fused parts or gaps INS600HVDFREYEYD): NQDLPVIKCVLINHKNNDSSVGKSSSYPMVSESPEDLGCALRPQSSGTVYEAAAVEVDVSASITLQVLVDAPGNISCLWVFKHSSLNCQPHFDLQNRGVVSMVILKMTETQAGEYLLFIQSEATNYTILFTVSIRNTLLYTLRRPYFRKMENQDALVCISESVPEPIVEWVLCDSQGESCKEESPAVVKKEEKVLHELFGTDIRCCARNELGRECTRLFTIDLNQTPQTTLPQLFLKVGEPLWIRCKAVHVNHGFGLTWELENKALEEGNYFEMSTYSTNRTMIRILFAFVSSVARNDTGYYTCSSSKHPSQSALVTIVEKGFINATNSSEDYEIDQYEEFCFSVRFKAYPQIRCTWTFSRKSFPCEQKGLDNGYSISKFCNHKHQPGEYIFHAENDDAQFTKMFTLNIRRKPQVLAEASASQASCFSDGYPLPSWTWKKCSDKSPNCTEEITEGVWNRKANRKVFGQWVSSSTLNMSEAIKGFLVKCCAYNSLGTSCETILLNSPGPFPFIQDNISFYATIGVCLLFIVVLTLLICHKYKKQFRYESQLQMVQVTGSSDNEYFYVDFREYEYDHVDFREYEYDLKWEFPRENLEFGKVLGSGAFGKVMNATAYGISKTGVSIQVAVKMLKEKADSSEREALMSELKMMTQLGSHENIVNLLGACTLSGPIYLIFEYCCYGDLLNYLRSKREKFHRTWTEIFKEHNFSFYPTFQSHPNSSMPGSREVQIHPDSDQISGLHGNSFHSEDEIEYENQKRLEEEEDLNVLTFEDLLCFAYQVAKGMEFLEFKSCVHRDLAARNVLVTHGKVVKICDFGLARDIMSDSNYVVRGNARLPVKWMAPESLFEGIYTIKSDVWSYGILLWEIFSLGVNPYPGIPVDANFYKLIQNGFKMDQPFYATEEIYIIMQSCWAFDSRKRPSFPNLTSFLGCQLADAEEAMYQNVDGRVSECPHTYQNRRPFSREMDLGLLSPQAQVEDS
Procedure: as §1
Measurement of Inhibition of the Tyrosine Kinase Activity of the Flt-3 Receptor
The inhibitory effect of the compounds according to the invention on the tyrosine kinase activity of the Flt-3 receptor was evaluated on the MV4-11 cell line, a line established from a leukaemia of the AML type and bearing a constitutively active mutant Flt3ITD. The inhibitory activity is correlated with inhibition of cell growth, according to the protocols described by SPIEKERMANN, K. et al., Blood, 2003, 101, (4) 1494-1504 and O'FARRELL, A.-M. et al., Blood, 2003, 101, (9) 3597-3605.
as §2, with “The MV4-11” for “The BaF3 Tel/PDGF”, “with PBS” for “with phosphate”, “of 1.10^5” for “of 5.10^4”, “(100 μl” for “(100 ml”, “h,” for “h, the”, “measured using” for “measured with”
The inhibitory activity with respect to the Flt-3 receptor is given by the concentration that inhibits 50% of the proliferation of the MV4-11 cells.

Row | melting point | pIC50 [1] | Structure (SMILES) | further results
1 | 200 °C |  | CCn1c(N)c(-c2ncc[nH]2)c(=O)c2ccc(-c3ccc(CC(=O)Nc4ccccn4)cn3)nc21 (as salt: HCl) [Compound 2, 2-{6-[7-Amino-8-ethyl-6-(1H-imidazol-2-yl)-5-oxo-5,8-dihydro-[1,8]naphthyridin-2-yl]-pyridin-3-yl}-N-pyridin-2-yl-acetamide] | 
2 | 210 °C |  | CCn1c(N)c(-c2ncc[nH]2)c(=O)c2ccc(-c3ccc(CC(=O)NCC4COCCN4C4CC4)cc3)nc21 (stereo not shown) (as salt: HCl) [Compound 3, 2-{4-[7-Amino-8-ethyl-6-(1H-imidazol-2-yl)-5-oxo-5,8-dihydro-[1,8]naphthyridin-2-yl]-phenyl}-N-(4-cyclopropyl-morpholin-3-ylmethyl)-acetamide] | 
3 | 118 °C |  | Nc1c(-c2ncc[nH]2)c(=O)c2ccc(-c3ccc(CC(=O)NCc4ccncc4)cc3)nc2n1CC1CC1 (as salt: TFA) [Compound 51, 2-{4-[7-Amino-8-cyclopropylmethyl-6-(1H-imidazol-2-yl)-5-oxo-5,8-dihydro-[1,8]naphthyridin-2-yl]-phenyl}-N-pyridin-4-ylmethyl-acetamide] | 
4 | 120 °C |  | CCn1c(N)c(-c2ncc[nH]2)c(=O)c2ccc(-c3ccc(CC(=O)NCc4ccncc4)nc3)nc21 (as salt: TFA) [Compound 53, 2-{5-[7-Amino-8-ethyl-6-(1H-imidazol-2-yl)-5-oxo-5,8-dihydro-[1,8]naphthyridin-2-yl]-pyridin-2-yl}-N-pyridin-4-ylmethyl-acetamide] | 
5 | 144 °C |  | CCn1c(N)c(-c2nc(C)c[nH]2)c(=O)c2ccc(-c3ccc(CC(=O)NCc4ccncc4)cc3)nc21 (as salt: salt) [Compound 50, 2-{4-[7-Amino-8-ethyl-6-(4-methyl-1H-imidazol-2-yl)-5-oxo-5,8-dihydro-[1,8]naphthyridin-2-yl]-phenyl}-N-pyridin-4-ylmethyl-acetamide] | 
6 |  | 8.10 | CCn1c(N)c(-c2ncc[nH]2)c(=O)c2ccc(-c3ccc(CC(=O)Nc4ccccn4)cn3)nc21 [Compound 2, 2-{6-[7-Amino-8-ethyl-6-(1H-imidazol-2-yl)-5-oxo-5,8-dihydro-[1,8]naphthyridin-2-yl]-pyridin-3-yl}-N-pyridin-2-yl-acetamide] | 
7 |  | 8.01 | CCN1CCCC1CNC(=O)Cc1ccc(-c2ccc3c(=O)c(-c4ncc[nH]4)c(N)n(CC)c3n2)c(C)c1 (stereo not shown) [Compound 9, 2-{4-[7-Amino-8-ethyl-6-(1H-imidazol-2-yl)-5-oxo-5,8-dihydro-[1,8]naphthyridin-2-yl]-3-methyl-phenyl}-N-(1-ethyl-pyrrolidin-2-ylmethyl)-acetamide] | 
8 |  | 8.60 | CCn1c(N)c(-c2ncc[nH]2)c(=O)c2ccc(-c3ccc(CC(=O)Nc4ccc(C)nc4)cc3)nc21 [Compound 10, 2-{4-[7-Amino-8-ethyl-6-(1H-imidazol-2-yl)-5-oxo-5,8-dihydro-[1,8]naphthyridin-2-yl]-phenyl}-N-(6-methyl-pyridin-3-yl)-acetamide] | 
9 |  | 8.62 | CCn1c(N)c(-c2ncc[nH]2)c(=O)c2ccc(-c3ccc(CC(=O)Nc4nnc(C)s4)cc3)nc21 [Compound 14, 2-{4-[7-Amino-8-ethyl-6-(1H-imidazol-2-yl)-5-oxo-5,8-dihydro-[1,8]naphthyridin-2-yl]-phenyl}-N-(5-methyl-[1,3,4]thiadiazol-2-yl)-acetamide] | 
10 |  |  | CCn1c(N)c(-c2ncc[nH]2)c(=O)c2ccc(-c3ccc(CC(=O)Nc4ncc(Cl)s4)cc3)nc21 [Compound 26, 2-{4-[7-Amino-8-ethyl-6-(1H-imidazol-2-yl)-5-oxo-5,8-dihydro-[1,8]naphthyridin-2-yl]-phenyl}-N-(5-chloro-thiazol-2-yl)-acetamide] | pIC50 [2]: 7.02
11 | 186 °C |  | CCn1c(N)c(-c2ncc[nH]2)c(=O)c2ccc(-c3ccc(C(C)C(=O)NCc4ccncc4)cc3)nc21 (stereo not shown) [Compound 47, 2-{4-[7-Amino-8-ethyl-6-(1H-imidazol-2-yl)-5-oxo-5,8-dihydro-[1,8]naphthyridin-2-yl]-phenyl}-N-pyridin-4-ylmethyl-propionamide] | 
12 | 240 °C |  | CCn1c(N)c(-c2ncc[nH]2)c(=O)c2ccc(-c3ccc(CCCC(=O)NCc4ccncc4)cc3)nc21 [Compound 49, 4-{4-[7-Amino-8-ethyl-6-(1H-imidazol-2-yl)-5-oxo-5,8-dihydro-[1,8]naphthyridin-2-yl]-phenyl}-N-pyridin-4-ylmethyl-butyramide] | 
13 |  | 8.05 | Nc1c(-c2ncc[nH]2)c(=O)c2ccc(-c3ccc(CC(=O)NCc4ccncc4)cc3)nc2n1CC1CC1 [Compound 51, 2-{4-[7-Amino-8-cyclopropylmethyl-6-(1H-imidazol-2-yl)-5-oxo-5,8-dihydro-[1,8]naphthyridin-2-yl]-phenyl}-N-pyridin-4-ylmethyl-acetamide] | 
14 |  | 7.87 | Nc1c(-c2ncc[nH]2)c(=O)c2ccc(-c3ccc(CC(=O)NCc4ccncc4)cc3)nc2n1C1CCCC1 [Compound 52, 2-{4-[7-Amino-8-cyclopentyl-6-(1H-imidazol-2-yl)-5-oxo-5,8-dihydro-[1,8]naphthyridin-2-yl]-phenyl}-N-pyridin-4-ylmethyl-acetamide] | 
15 |  | 8.23 | CCn1c(N)c(-c2ncc[nH]2)c(=O)c2ccc(-c3ccc(CC(=O)NCCCc4ccccc4)cc3)nc21 [Compound 55, 2-{4-[7-Amino-8-ethyl-6-(1H-imidazol-2-yl)-5-oxo-5,8-dihydro-[1,8]naphthyridin-2-yl]-phenyl}-N-(3-phenyl-propyl)-acetamide] | 
16 | 100 °C |  | CCN1CCCC1CNC(=O)Cc1ccc(-c2ccc3c(=O)c(-c4ncc[nH]4)c(N)n(CC)c3n2)cc1F (stereo not shown) [Compound 56, 2-{4-[7-Amino-8-ethyl-6-(1H-imidazol-2-yl)-5-oxo-5,8-dihydro-[1,8]naphthyridin-2-yl]-2-fluoro-phenyl}-N-(1-ethyl-pyrrolidin-2-ylmethyl)-acetamide] | 
